# Data taken from US10392599B2, “Method for non-freeze low-temperature preservation of mammalian embryo or fertilized egg” (NATIONAL FEDERATION OF AGRICULTURAL COOPERATIVE ASSOCIATIONS, priority 2012, dated 2019).
# Key:
# [1] = pH of the preservative solution upon completion of preservation; format: physicochemical; settings: for pH of the medium upon completion of the refrigerated storage for 7 days: Good's buffer 25 mM, FBS 50% (v/v), medium 199; for pH upon completion of preservation: medium 199, 7 days
# Method: Preservation of bovine embryos was carried out as follows (FIG. 1). First, a preservative solution alone was sucked into a straw having a capacity of 0.25 ml, and, after introduction of an air layer, a bovine embryo contained in the preservative solution was sucked. Thereafter, an air layer was introduced, and the preservative solution alone was sucked again. The straw was then sealed. Subsequently, the straw containing the sucked bovine embryo was immersed in water contained in a plastic container (plastic tube) which had been preliminarily cooled to 4 to 5° C. The plastic container was then stored in a refrigerator for 7 days at 4 to 5° C. […]
# bovine embryos [2] = test: in vitro culture test of low-quality bovine embryos after 7 days of non-freezing preservation (survival, hatching); format: cell-based, Japanese Black Cattle and Holstein Cattle; settings: for Hatched embryos (%) / Survival rate (%) / Hatched embryos: number / Survival rate: number of surviving embryos: medium 199, low temperature 7 days; for Hatched embryos: number / Survival rate: number of surviving embryos: out of N; for Number of hatched embryos (%) / Number of live embryos (%) / Number of hatched embryos / Number of live embryos: medium 199, 7 days non-frozen
# Method: (§1) Embryos collected from donor bovine animals of Japanese Black Cattle and Holstein Cattle after superovulation were evaluated for their qualities according to the regulation by International Embryo Transfer Society (IETS manual. Manual of the international embryo transfer society. In: Stringfellow D A, Seidel S M, editors. Savoy, Ill., USA: IETS 1998). Low-quality embryos were subjected to an in vitro culture test after 7 days of non-freezing preservation, and high-quality embryos were subjected to investigation of the conception rate after implantation to recipient cattle.
# (§2) Preservation of bovine embryos was carried out as follows (FIG. 1). First, a preservative solution alone was sucked into a straw having a capacity of 0.25 ml, and, after introduction of an air layer, a bovine embryo contained in the preservative solution was sucked. Thereafter, an air layer was introduced, and the preservative solution alone was sucked again. The straw was then sealed. Subsequently, the straw containing the sucked bovine embryo was immersed in water contained in a plastic container (plastic tube) which had been preliminarily cooled to 4 to 5° C. The plastic container was then stored in a refrigerator for 7 days at 4 to 5° C.
# (§3) After the non-freezing preservation, the bovine embryo was washed 3 times by immersion in PBS(+) containing 5% (v/v) fetal bovine serum (FBS). The washed bovine embryo was cultured under 5% CO2 at 38° C. in CR1aa medium containing 5% (v/v) FBS for 48 hours. Morphological observation was carried out under a stereoscopic microscope, and the embryo was judged to be alive if the progress of cleavage by the culture could be found and the cytoplasmic membrane was not disrupted. Live cells were checked for whether hatching from the zona pellucida could be observed or not. A bovine embryo washed with PBS(+) containing 5% (v/v) FBS was nonsurgically implanted into the deep part of the corpus-luteum-side uterine horn of each recipient cattle on Day 6 to 8 of an estrous cycle (the date of estrus was defined as Day 0). On Days 30 and 60 of the estrous cycle, pregnancy diagnosis was carried out. For a significance test to verify the effect of the embryo preservation solution according to the present invention, a χ^2 test was used.
# (§4) To medium 199 (Invitrogen) supplemented with antibiotics (penicillin G potassium and streptomycin sulfate), FBS was added to 20 to 50% (v/v), and HEPES was also added to a concentration of 0 to 100 mM. In the conception test, a group in which a special peptide having a protection effect against low temperature (mature Nfel1, SEQ ID NO:2) was added was also provided. In addition, in order to investigate the effects of other Good's buffers other than HEPES, preservation solutions were prepared by adding FBS and a Good's buffer (PIPES or MOPS) to medium 199 such that the concentration of FBS was 50% (v/v) and the concentration of the Good's buffer was 25 mM. These preservation solutions were sterilized by filtration through a filter having a pore size of 0.2 μm, and stored in a refrigerator until use.
# Using medium 199 to which a Good's buffer was added at 25 mM (FBS concentration, 50% (v/v) FBS), bovine embryos were preserved at low temperature for 7 days, and the survival rate and the hatching rate were investigated by the method described above. […] In Table 3, “pH” indicates the pH of the medium upon completion of the refrigerated storage for 7 days.
# bovine embryos [3] = test: conception test: implantation of high-quality bovine embryos preserved 7 days in the non-frozen state into recipient cattle; format: in vivo; settings: 25 mM HEPES; for Conceptus number on Day 30 / Conceptus number on Day 60: 16 implanted embryos
# Method: as §1, §2, §3, §4
# Subsequently, the conception ability of high-quality bovine embryos that had been preserved in the non-frozen state for 7 days was investigated. Since the concentration of HEPES generally recommended for use in cell culture is 10 to 25 mM (Luo S et al., Effect of HEPES buffer on the uptake and transport of P-glycoprotein substrates and large neutral amino acids. Mol Pharm 2010; 7:412-420), the concentration of HEPES in the non-freezing preservative solution used in the present test for investigation of the conception ability was set to 25 mM. The special recombinant peptide having a protection effect against low temperature (mature Nfel1 peptide) was added to medium 199 containing 50% (v/v) FBS supplemented with 25 mM HEPES, to see whether the peptide improves the conception ability or not.
# bovine embryos [4] = settings: mature Nfel1 in combination with about 20 to 50% (v/v) serum; cited from earlier work
# [5] = Good's buffer 25 mM, FBS 50% (v/v)
# [6] = 12.5 mM HEPES, 20% FBS, 35 tested embryos
# [7] = 12.5 mM HEPES, 50% FBS, 35 tested embryos
# [8] = 25 mM HEPES, 20% FBS, 36 tested embryos
# [9] = 25 mM HEPES, 50% FBS, 36 tested embryos
# [10] = 50 mM HEPES, 20% FBS, 30 tested embryos
# [11] = 50 mM HEPES, 50% FBS, 30 tested embryos
# [12] = 100 mM HEPES, 50% FBS, 20 tested embryos
# [13] = medium 199, 50% (v/v) FBS, 7 days non-frozen
# [14] = 25 mM tris (pH adjusted to 7.2 with hydrochloric acid), medium 199, 50% (v/v) FBS, 7 days
compound,measurement,setting,value
"O=S(=O)(O)CCCN1CCN(CCO)CC1 [EPPS, 3-[4-(2-Hydroxyethyl)-1-piperazinyl]propanesulfonic acid]",pH of the medium upon completion of the refrigerated storage for 7 days,[1],7.3
same,Hatched embryos (%),bovine embryos [2]; [5],10.0%
same,Survival rate (%),bovine embryos [2]; [5],35.0%
same,Hatched embryos: number,bovine embryos [2]; [5],2
same,Survival rate: number of surviving embryos,bovine embryos [2]; [5],7
"O=S(=O)(O)CCN1CCN(CCO)CC1 [HEPES, 4-(2-hydroxyethyl)-1-piperazineethanesulfonic acid]",pH upon completion of preservation,"[1]; 12.5 mM HEPES, 20% FBS",7.4
same,pH upon completion of preservation,"[1]; 12.5 mM HEPES, 50% FBS",7.4
same,pH upon completion of preservation,"[1]; 25 mM HEPES, 20% FBS",7.3
same,pH upon completion of preservation,"[1]; 25 mM HEPES, 50% FBS",7.0
same,pH upon completion of preservation,"[1]; 50 mM HEPES, 20% FBS",6.9
same,pH upon completion of preservation,"[1]; 50 mM HEPES, 50% FBS",6.8
same,pH upon completion of preservation,"[1]; 100 mM HEPES, 50% FBS",6.9
same,pH of the medium upon completion of the refrigerated storage for 7 days,[1],7.0
same,pH of the non-freezing preservative solution containing HEPES upon completion of the preservation,[1]; HEPES-containing solutions of Table 1,6.9 to 7.4
same,Number of hatched embryos (%),"bovine embryos [2]; 12.5 mM HEPES, 20% FBS",8.6%
same,Number of live embryos (%),"bovine embryos [2]; 12.5 mM HEPES, 20% FBS",25.7%
same,Number of hatched embryos,bovine embryos [2]; [6],3
same,Number of live embryos,bovine embryos [2]; [6],9
same,Number of hatched embryos (%),"bovine embryos [2]; 12.5 mM HEPES, 50% FBS",25.7%
same,Number of live embryos (%),"bovine embryos [2]; 12.5 mM HEPES, 50% FBS",54.3%
same,Number of hatched embryos,bovine embryos [2]; [7],9
same,Number of live embryos,bovine embryos [2]; [7],19
same,Number of hatched embryos (%),"bovine embryos [2]; 25 mM HEPES, 20% FBS",25.0%
same,Number of live embryos (%),"bovine embryos [2]; 25 mM HEPES, 20% FBS",63.9%
same,Number of hatched embryos,bovine embryos [2]; [8],9
same,Number of live embryos,bovine embryos [2]; [8],23
same,Number of hatched embryos (%),"bovine embryos [2]; 25 mM HEPES, 50% FBS",36.1%
same,Number of live embryos (%),"bovine embryos [2]; 25 mM HEPES, 50% FBS",69.4%
same,Number of hatched embryos,bovine embryos [2]; [9],13
same,Number of live embryos,bovine embryos [2]; [9],25
same,Number of hatched embryos (%),"bovine embryos [2]; 50 mM HEPES, 20% FBS",26.7%
same,Number of live embryos (%),"bovine embryos [2]; 50 mM HEPES, 20% FBS",63.3%
same,Number of hatched embryos,bovine embryos [2]; [10],8
same,Number of live embryos,bovine embryos [2]; [10],19
same,Number of hatched embryos (%),"bovine embryos [2]; 50 mM HEPES, 50% FBS",33.3%
same,Number of live embryos (%),"bovine embryos [2]; 50 mM HEPES, 50% FBS",73.3%
same,Number of hatched embryos,bovine embryos [2]; [11],10
same,Number of live embryos,bovine embryos [2]; [11],22
same,Number of hatched embryos (%),"bovine embryos [2]; 100 mM HEPES, 50% FBS",20.0%
same,Number of live embryos (%),"bovine embryos [2]; 100 mM HEPES, 50% FBS",65.0%
same,Number of hatched embryos,bovine embryos [2]; [12],4
same,Number of live embryos,bovine embryos [2]; [12],13
same,"effect to protect embryos during non-freezing low-temperature preservation, compared among Good's buffers","bovine embryos [2]; Good's buffer 25 mM, FBS 50% (v/v), medium 199, 7 days",highest effect
same,Hatched embryos (%),bovine embryos [2]; [5],36.1%
same,Survival rate (%),bovine embryos [2]; [5],69.4%
same,Hatched embryos: number,bovine embryos [2]; [5],13
same,Survival rate: number of surviving embryos,bovine embryos [2]; [5],25
same,survival rate after preservation for 7 days compared to the HEPES-free group,"bovine embryos [2]; HEPES 12.5 to 100 mM, low-quality bovine embryos",higher survival rate
same,rate of hatching from the zona pellucida,"bovine embryos [2]; HEPES 25 to 50 mM, FBS 50% (v/v)",especially high
same,conception rate,"bovine embryos [3]; high-quality bovine embryos, 7 days non-frozen, medium 199, 50% (v/v) FBS",75.0%
same,Conceptus number on Day 30 (%),bovine embryos [3]; [13],75.0%
same,Conceptus number on Day 60 (%),bovine embryos [3]; [13],75.0%
same,birth of calves,bovine embryos [3]; [13],birth of normal calves could be observed
same,death of early embryos between Day 30 and Day 60 of pregnancy,bovine embryos [3]; [13],not found
same,Conceptus number on Day 30,bovine embryos [3]; [13],12
same,Conceptus number on Day 60,bovine embryos [3]; [13],12
"O=S(=O)(O)CCCN1CCOCC1 [MOPS, 3-Morpholinopropanesulfonic acid]",pH of the medium upon completion of the refrigerated storage for 7 days,[1],7.0
same,Hatched embryos (%),bovine embryos [2]; [5],25.0%
same,Survival rate (%),bovine embryos [2]; [5],45.0%
same,Hatched embryos: number,bovine embryos [2]; [5],5
same,Survival rate: number of surviving embryos,bovine embryos [2]; [5],9
"O=S(=O)(O)CCN1CCN(CCS(=O)(=O)O)CC1 [PIPES, Piperazine-1,4-bis(2-ethanesulfonic acid)]",pH of the medium upon completion of the refrigerated storage for 7 days,[1],7.0
same,Hatched embryos (%),bovine embryos [2]; [5],25.0%
same,Survival rate (%),bovine embryos [2]; [5],40.0%
same,Hatched embryos: number,bovine embryos [2]; [5],5
same,Survival rate: number of surviving embryos,bovine embryos [2]; [5],8
"O=S(=O)(O)CCNC(CO)(CO)CO [TES, N-Tris(hydroxymethyl)methyl-2-aminoethanesulfonic acid]",pH of the medium upon completion of the refrigerated storage for 7 days,[1],7.2
same,Hatched embryos (%),bovine embryos [2]; [5],15.0%
same,Survival rate (%),bovine embryos [2]; [5],30.0%
same,Hatched embryos: number,bovine embryos [2]; [5],3
same,Survival rate: number of surviving embryos,bovine embryos [2]; [5],6
"Special recombinant peptide: special peptide having a protection effect against low temperature (mature Nfel1, SEQ ID NO:2), 66 residues, expressed in E. coli",period of preservation of bovine embryos at non-freezing low temperature,bovine embryos [4],up to 5 days
same,Conceptus number on Day 30 (%),bovine embryos [3]; [13],75.0%
same,Conceptus number on Day 60 (%),bovine embryos [3]; [13],75.0%
same,Conceptus number on Day 30,bovine embryos [3]; [13],12
same,Conceptus number on Day 60,bovine embryos [3]; [13],12
same,conception-promoting effect,"bovine embryos [3]; peptide added to medium 199, 50% (v/v) FBS",No conception-promoting effect was found
tris(hydroxymethyl)aminomethane [reference compound],pH after the low-temperature preservation,"[1]; 25 mM tris, medium 199, 50% (v/v) FBS, 7 days",7.2
same,hatching rate after the preservation,bovine embryos [2]; [14],5.0%
same,survival rate after the preservation,bovine embryos [2]; [14],10.0%
